The record followed here is patent US10093683B2, “Factor XIa inhibitors” (Merck Sharp & Dohme Corp., priority 2014, dated 2018).

Where a name gives a salt, the structure may show the parent alone. Where only a bound is given, the exact number is not on record here.

For the first test, the target named is human Factor XIa (Homo sapiens (Human), UniProt P03951). The experiment in a line: Factor XIa Assay. The format is biochemical. As to conditions: purified human Factor XIa 40 pM, Z-Gly-Pro-Arg-AFC 100 μM, pH 7.4; read-out: FXIa Ki. The gist of the method: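 Purified human FXIa (40 pM final) hydrolysing fluorogenic Z-Gly-Pro-Arg-AFC (100 μM) in 50 mM HEPES pH 7.4, 150 mM NaCl, 5 mM CaCl2, 0.1% PEG 8000, at room temperature or 37° C. Initial velocities measured after enzyme–inhibitor equilibration; Ki from Vo/Vi versus [I], assuming competitive inhibition.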
Chain of human Factor XIa (P03951 388-625): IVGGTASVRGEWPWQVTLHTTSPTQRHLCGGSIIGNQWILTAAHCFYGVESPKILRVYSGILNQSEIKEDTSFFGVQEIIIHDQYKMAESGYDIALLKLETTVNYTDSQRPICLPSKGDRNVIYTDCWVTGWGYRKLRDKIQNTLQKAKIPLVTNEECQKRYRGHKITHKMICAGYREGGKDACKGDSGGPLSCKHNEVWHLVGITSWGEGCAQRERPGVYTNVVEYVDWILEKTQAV
Chain of human Factor XIa (P03951 19-387 partner): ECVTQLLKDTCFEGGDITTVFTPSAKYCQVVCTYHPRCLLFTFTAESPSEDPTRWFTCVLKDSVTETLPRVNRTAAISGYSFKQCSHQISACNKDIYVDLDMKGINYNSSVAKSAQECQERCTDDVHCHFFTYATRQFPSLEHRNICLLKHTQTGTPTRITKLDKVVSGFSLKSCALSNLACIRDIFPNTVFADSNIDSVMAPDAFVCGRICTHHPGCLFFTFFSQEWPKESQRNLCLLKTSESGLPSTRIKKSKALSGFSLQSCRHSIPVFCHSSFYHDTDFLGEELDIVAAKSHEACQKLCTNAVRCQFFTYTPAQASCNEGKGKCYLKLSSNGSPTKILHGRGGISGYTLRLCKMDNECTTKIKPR
Regarding `COC(=O)Nc1ccc(C(=O)N[C@@H](CC(=O)N2CC(F)(F)C2)C(=O)N2CCC[C@@]3(C2)OC(=O)Nc2ccc(Cl)cc23)cc1` [Example 85, methyl (4-(((S)-1-((R)-6-chloro-2-oxo-1,2-dihydrospiro[benzo[d][1,3]oxazine-4,3′-piperidin]-1′-yl)-4-(3,3-difluoroazetidin-1-yl)-1,4-dioxobutan-2-yl)carbamoyl)phenyl)carbamate], the Ki amounted to 33.3 nM. Consider `COC(=O)Nc1ccc(NC(=O)N[C@@H](Cc2ccccc2)C(=O)N2CCC3(C2)OC(=O)Nc2ccc(Cl)cc23)cc1` (stereo partly drawn) [Example 275, methyl (4-(3-((2S)-1-(6-chloro-2-oxo-1,2-dihydrospiro[benzo[d][1,3]oxazine-4,3′-pyrrolidin]-1′-yl)-1-oxo-3-phenylpropan-2-yl)ureido)phenyl)carbamate], for which the inhibition constant Ki is 5000 nM.

As for `COC(=O)Nc1ccc(C(=O)N[C@@H](CC(=O)Nc2ccccn2)C(=O)N2CC[C@@]3(C2)OC(=O)Nc2ccc(Cl)cc23)cc1` [Example 90, methyl (4-(((S)-1-((R)-6-chloro-2-oxo-1,2-dihydrospiro[benzo[d][1,3]oxazine-4,3′-pyrrolidin]-1′-yl)-1,4-dioxo-4-(pyridin-2-ylamino)butan-2-yl)carbamoyl)phenyl)carbamate], the Ki turned out to be 57.4 nM. As to `O=C1Nc2ccc(Cl)cc2[C@@]2(CCCN(C(=O)C(Cc3ccc(F)cc3)c3nc4ccc(F)cc4[nH]3)C2)O1` (stereo partly drawn) [Example 133, (4R)-6-chloro-1′-(2-(6-fluoro-1H-benzo[d]imidazol-2-yl)-3-(4-fluorophenyl)propanoyl)spiro[benzo[d][1,3]oxazine-4,3′-piperidin]-2(1H)-one], the Ki worked out at 8750 nM. Consider `O=C1Nc2ccc(Cl)cc2[C@@]2(CCCN(C(=O)C(Cc3ccc(F)cc3)c3nc(Cl)c(-c4ccc(F)cc4)[nH]3)C2)O1` (stereo partly drawn) [Example 127, (4R)-6-chloro-1′-(2-(4-chloro-5-(4-fluorophenyl)-1H-imidazol-2-yl)-3-(4-fluorophenyl)propanoyl)spiro[benzo[d][1,3]oxazine-4,3′-piperidin]-2(1H)-one], for which the Ki came to 5000 nM. On the same count and under the same terms, the figure for `COC(=O)Nc1ccc(C(=O)N[C@@H](Cc2ccccc2)C(=O)N2CC[C@@]3(C2)OC(=O)Nc2ncc(Cl)cc23)cc1` [Example 1b, methyl (4-(((S)-1-((R)-6-chloro-2-oxo-1,2-dihydrospiro[pyrido[2,3-d][1,3]oxazine-4,3′-pyrrolidin]-1′-yl)-1-oxo-3-phenylpropan-2-yl)carbamoyl)phenyl)carbamate] is 246 nM; for `COC(=O)Nc1ccc(C(=O)N[C@@H](CC(F)(F)F)C(=O)N2CCC[C@@]3(C2)OC(=O)Nc2ccc(Cl)cc23)cc1` [Example 64, methyl (4-(((S)-1-((R)-6-chloro-2-oxo-1,2-dihydrospiro[benzo[d][1,3]oxazine-4,3′-piperidin]-1′-yl)-4,4,4-trifluoro-1-oxobutan-2-yl)carbamoyl)phenyl)carbamate] it is 1930 nM; for `COC(=O)Nc1ccc(C(=O)N[C@@H](Cc2ccccc2)C(=O)N2CC3(C2)OC(=O)Nc2ccc(Cl)cc23)cc1` [Example 5, (S)-methyl (4-((1-(6′-chloro-2′-oxo-1′,2′-dihydrospiro[azetidine-3,4′-benzo[d][1,3]oxazin]-1-yl)-1-oxo-3-phenylpropan-2-yl)carbamoyl)phenyl)carbamate] it is above 5000 nM. Same read-out and setting: the figure for `COC(=O)Nc1ccc(C(=O)N[C@@H](CCF)C(=O)N2CCC[C@@]3(C2)OC(=O)Nc2ccc(Cl)cc23)cc1` [Example 103, methyl (4-(((S)-1-((R)-6-chloro-2-oxo-1,2-dihydrospiro[benzo[d][1,3]oxazine-4,3′-piperidin]-1′-yl)-4-fluoro-1-oxobutan-2-yl)carbamoyl)phenyl)carbamate] is 52 nM; for `COC(=O)Nc1ccc(C(=O)N[C@@H](CCN2CCC2)C(=O)N2CC[C@@]3(C2)OC(=O)Nc2ccc(Cl)cc23)cc1` [Example 112, methyl (4-(((S)-4-(azetidin-1-yl)-1-((R)-6-chloro-2-oxo-1,2-dihydrospiro[benzo[d][1,3]oxazine-4,3′-pyrrolidin]-1′-yl)-1-oxobutan-2-yl)carbamoyl)phenyl)carbamate] it is 219 nM.

For the molecule `Nc1nc2ccc(C(=O)N3C[C@H](F)C[C@H]3C(=O)N3CC[C@@]4(C3)OC(=O)Nc3ccc(Cl)cc34)cc2s1` [Example 291, (R)-1′-((2S,4R)-1-(2-aminobenzo[d]thiazole-6-carbonyl)-4-fluoropyrrolidine-2-carbonyl)-6-chlorospiro[benzo[d][1,3]oxazine-4,3′-pyrrolidin]-2(1H)-one], the Ki was 4620 nM. In the case of `Nc1nc2ccc(C(=O)N3C[C@H](Cc4ccccc4)C[C@H]3C(=O)N3CC[C@@]4(C3)OC(=O)Nc3ccc(Cl)cc34)cc2s1` [Example 292, (R)-1′-((2S,4R)-1-(2-aminobenzo[d]thiazole-6-carbonyl)-4-benzylpyrrolidine-2-carbonyl)-6-chlorospiro[benzo[d][1,3]oxazine-4,3′-pyrrolidin]-2(1H)-one], the Ki came out at 1870 nM.

Consider `COC(=O)Nc1ccc(C(=O)NC(Cc2cc[nH]n2)C(=O)N2CCC3(C2)OC(=O)Nc2ccc(Cl)cc23)cc1` (racemic) [Example 28, methyl (4-((1-(6-chloro-2-oxo-1,2-dihydrospiro[benzo[d][1,3]oxazine-4,3′-pyrrolidin]-1′-yl)-1-oxo-3-(1H-pyrazol-3-yl)propan-2-yl)carbamoyl)phenyl)carbamate], for which the inhibitory constant (Ki) stood at 63.7 nM.

Staying with this test, now noted: read-out: FXIa Ki.
On to `CS(=O)(=O)Nc1ccc(C(=O)N[C@@H](Cc2ccccc2)C(=O)N2CCC3(C2)OC(=O)Nc2ccc(Cl)cc23)cc1` (stereo partly drawn) [Example 163, N-((2S)-1-(6-chloro-2-oxo-1,2-dihydrospiro[benzo[d][1,3]oxazine-4,3′-pyrrolidin]-1′-yl)-1-oxo-3-phenylpropan-2-yl)-4-(methylsulfonamido)benzamide], for which the Ki came to 63.2 nM.

Turning to `O=C1CS(=O)(=O)c2cc(C(=O)N[C@@H](Cc3ccccc3)C(=O)N3CCC4(C3)OC(=O)Nc3ccc(Cl)cc34)ccc2N1` (stereo partly drawn) [Example 193, N-((2S)-1-(6-chloro-2-oxo-1,2-dihydrospiro[benzo[d][1,3]oxazine-4,3′-pyrrolidine]-1′-yl)-1-oxo-3-phenylpropan-2-yl)-3-oxo-3,4-dihydro-2H-benzo[b][1,4]thiazine-7-carboxamide 1,1-dioxide], the Ki came out at 145 nM. As for `Nc1nc(C(=O)N[C@@H](Cc2ccccc2)C(=O)N2CCC3(C2)OC(=O)Nc2ccc(Cl)cc23)cs1` (stereo partly drawn) [Example 175], the Ki is 212 nM. For the molecule `O=C(Nc1ccc(C(=O)N[C@@H](Cc2ccccc2)C(=O)N2CCC3(C2)OC(=O)Nc2ccc(Cl)cc23)cc1)OCCN1CCNCC1` (stereo partly drawn) [Example 190, 2-(Piperazin-1-yl)ethyl (4-(((2S)-1-(6-chloro-2-oxo-1,2-dihydrospiro[benzo[d][1,3]oxazine-4,3′-pyrrolidin]-1′-yl)-1-oxo-3-phenylpropan-2-yl)carbamoyl)phenyl)carbamate 2 trifluoroacetic acid salt], the Ki worked out at 76.7 nM. For `O=C1Nc2ccc(Cl)c(F)c2[C@@]2(CCCN(C(=O)[C@H](Cc3cccc(F)c3)NC(=O)c3ccc(C(=O)NCCP(=O)(O)O)cc3)C2)O1` [Example 273, (2-(4-(((S)-1-((R)-6-Chloro-5-fluoro-2-oxo-1,2-dihydrospiro[benzo[d][1,3]oxazine-4,3′-piperidin]-1′-yl)-3-(3-fluorophenyl)-1-oxopropan-2-yl)carbamoyl)benzamido)ethyl)phosphonic acid], the inhibitory constant (Ki) was 367 nM. As for `COCCOC(=O)Nc1ccc(C(=O)N[C@@H](Cc2ccccc2)C(=O)N2CCC3(C2)OC(=O)Nc2ccc(Cl)cc23)cn1` (stereo partly drawn) [Example 186], the inhibition constant Ki was found to be 166 nM. Regarding `COC(=O)Nc1ccc(CN[C@@H](Cc2ccccc2)C(=O)N2CC[C@@]3(C2)OC(=O)Nc2ccc(Cl)cc23)cc1` [Example 222, Methyl (4-((((S)-1-((R)-6-chloro-2-oxo-1,2-dihydrospiro[benzo[d][1,3]oxazine-4,3′-pyrrolidin]-1′-yl)-1-oxo-3-phenylpropan-2-yl)amino)methyl)phenyl)carbamate], the Ki was 8750 nM. Take `O=C1Nc2ccc(Cl)c(F)c2[C@@]2(CCCN(C(=O)[C@H](Cc3ccccc3)NC(=O)c3ccc(-n4cn[nH]c4=O)cc3)C2)O1` [Example 247, N-((S)-1-((R)-6-chloro-5-fluoro-2-oxo-1,2-dihydrospiro[benzo[d][1,3]oxazine-4,3′-piperidin]-1′-yl)-1-oxo-3-phenylpropan-2-yl)-4-(5-oxo-1,5-dihydro-4H-1,2,4-triazol-4-yl)benzamide]: the inhibition constant Ki stood at 66.8 nM. As to `O=C1CCCc2cc(C(=O)N[C@@H](Cc3ccccc3)C(=O)N3CCC4(C3)OC(=O)Nc3ccc(Cl)cc34)ccc2N1` (stereo partly drawn) [Example 187], the Ki worked out at 151 nM. As to `COc1ccc(C(=O)N[C@@H](Cc2ccccc2)C(=O)N2CCC3(C2)OC(=O)Nc2ccc(Cl)cc23)nc1` (stereo partly drawn) [Example 147], the inhibition constant (Ki) turned out to be 4030 nM. Turning to `Nc1ccc2cc(C(=O)N[C@@H](Cc3ccccc3)C(=O)N3CCC4(C3)OC(=O)Nc3ccc(Cl)cc34)ccc2n1` (stereo partly drawn) [Example 261], the Ki was found to be 4050 nM. Same read-out and setting: to `O=C1Nc2ccc(Cl)cc2C2(CCN(C(=O)[C@H](Cc3ccccc3)NC(=O)c3ccc4oc(=O)[nH]c4c3)C2)O1` (stereo partly drawn) [Example 183] belongs 86.9 nM. Still for that read-out and setting: the figure for `O=C1Nc2ccc(Cl)cc2C2(CCN(C(=O)[C@H](Cc3ccccc3)NC(=O)c3cnc4[nH]c(=O)oc4c3)C2)O1` (stereo partly drawn) [Example 167] is 4160 nM; for `O=C1Nc2ccc(Cl)cc2[C@@]2(CCCN(C(=O)[C@H](CC3CC3)NC(=O)c3ccc(F)c(F)c3)C2)O1` [Example 202, N-((S)-1-((R)-6-chloro-2-oxo-1,2-dihydrospiro[benzo[d][1,3]oxazine-4,3′-piperidin]-1′-yl)-3-cyclopropyl-1-oxopropan-2-yl)-3,4-difluorobenzamide] it is 925 nM.

What is called Ki is a measure of affinity in units of concentration, obtained from inhibition or displacement.
